pEC50: −log10 of the molar value.

The target in the experiment is human Somatostatin 4 Receptor (SSTR4) (Homo sapiens (Human), UniProt P31391). In words: cAMP assay with human somatostatin 4 receptor (hSSTR4 expressing H4 cells). The format is cell-based. Particulars: read-out: SSTR4 agonism EC50. For orientation: Cyclic AMP is a second messenger, typically raised through Gs and lowered through Gi signalling.
Sequence of human Somatostatin 4 Receptor (SSTR4) (P31391 whole entry): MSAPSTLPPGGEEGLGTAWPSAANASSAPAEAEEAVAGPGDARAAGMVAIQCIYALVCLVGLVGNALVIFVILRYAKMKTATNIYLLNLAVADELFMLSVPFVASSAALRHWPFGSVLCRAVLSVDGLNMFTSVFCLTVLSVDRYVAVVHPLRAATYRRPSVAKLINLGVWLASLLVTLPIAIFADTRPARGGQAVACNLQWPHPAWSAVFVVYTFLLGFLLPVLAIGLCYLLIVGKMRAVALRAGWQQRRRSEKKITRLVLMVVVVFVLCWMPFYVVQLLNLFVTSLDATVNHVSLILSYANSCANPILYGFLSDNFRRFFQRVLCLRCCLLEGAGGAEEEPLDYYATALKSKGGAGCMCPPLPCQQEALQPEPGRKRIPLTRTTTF
With `CC(C)(COc1nccc2ccccc12)NC(=O)C1CNCCOC1` (single isomer, unassigned) [Example 18], the pEC50 was 6.68.

On to `Cc1cccn2c(C3(NC(=O)C4CNCCOC4)CCC3)ncc12` (single isomer, unassigned) [Example 131], for which the pEC50 was 7.72.

For `Cc1cccc2c(C(C)(C)NC(=O)C3CNCCOC3)nn(C)c12` (single isomer, unassigned) [Example 86], the pEC50 is 6.00.

`CC(C)(NC(=O)C1CNCCOC1)c1n[nH]c2c(Cl)cccc12` (single isomer, unassigned) [Example 94]: the pEC50 is 7.51.

With `Cc1cccn2c(C3(NC(=O)[C@@H]4CNCCO4)CCC3)ncc12` [Example 102], the pEC50 was 7.51.

`Cc1cccc2c(C(C)(C)NC(=O)C3CNCCOC3)cnn12` (single isomer, unassigned) [Example 35]: the pEC50 was 5.54.

With `COc1cccn2c(C(C)(C)NC(=O)C3CNCCOC3)ncc12` (single isomer, unassigned) [Example 124], the pEC50 is 6.00.

Turning to `Cc1cccn2c(C3(NC(=O)C4CNCCOC4)CCC3)ncc12` (single isomer, unassigned) [Example 132], the pEC50 is 5.00.

Consider `Cc1nc(C(C)(C)NC(=O)C2CNCCOC2)c2cccc(C)c2n1` (racemic) [Example 133], for which the pEC50 was 7.26.

For the compound `Cc1ncc(C(C)(C)NC(=O)[C@H]2CNCCO2)c2ccccc12` [Example 39], the pEC50 is 6.75.

For the compound `Cc1cccn2c(C(C)(C)NC(=O)C3CCNCCO3)ncc12` (single isomer, unassigned) [Example 142], the pEC50 is 7.04.

In the case of `Cc1cccn2c(C(C)(C)NC(=O)C3CNCCOC3)nc(C)c12` (single isomer, unassigned) [Example 129], the pEC50 was 8.28.

On to `Cc1cccn2c(C(C)(C)NC(=O)C3CNCCOC3)ccc12` (racemic) [Example 135], for which the pEC50 is 8.07.

Turning to `Cn1nc(C(C)(C)NC(=O)C2CCNCCO2)c2ccccc21` (single isomer, unassigned) [Example 28], the pEC50 is 7.32.

For `CC(C)(NC(=O)C1CNCCOC1)c1n[nH]c2c(Cl)cccc12` (racemic) [Example 92], the pEC50 is 8.60.

For the compound `Cc1cc2ccccc2c(C(C)(C)NC(=O)C2CCNCCO2)n1` (single isomer, unassigned) [Example 52], the pEC50 is 7.31.

For the compound `Cn1nc(C(C)(C)NC(=O)[C@@H]2CNCCO2)c2cccc(C(F)(F)F)c21` [Example 31], the pEC50 was 7.28.

In the case of `CC(C)(NC(=O)C1CCNCCO1)c1noc2c(F)cccc12` (single isomer, unassigned) [Example 70], the pEC50 was 6.26.

As for `CC(C)(NC(=O)[C@@H]1CNCCO1)C1CCCCC1` [Example 7], the pEC50 is 5.62.

On to `Cn1nc(C(C)(C)NC(=O)C2CNCCOC2)c2cccc(F)c21` (single isomer, unassigned) [Example 78], for which the pEC50 is 6.37.

With `Cc1nc2ccccn2c1C(C)(C)NC(=O)[C@@H]1CNCCO1` [Example 106], the pEC50 is 6.64.

Turning to `Cc1cccn2c(C(C)(C)NC(=O)C3CNCCOC3)ncc12` (single isomer, unassigned) [Example 118], the pEC50 was 7.06.

`Cc1cccn2c(C(C)(C)NC(=O)[C@@H]3CNCCO3)cnc12` [Example 108]: the pEC50 was 7.24.

In the case of `CC(C)(NC(=O)C1CNCCOC1)c1noc2c(F)cccc12` (racemic) [Example 62], the pEC50 is 7.18.

Take `CC(C)(COc1nccc2ccccc12)NC(=O)C1CNCCOC1` (racemic) [Example 16]: the pEC50 is 6.41.

Regarding `Cc1ccccc1OCC(C)(C)NC(=O)[C@@H]1CNCCO1` [Example 15], the negative logarithm of the EC50 (pEC50) is 6.61.

In the case of `C[C@H](NC(=O)[C@@H]1CNCCO1)c1cccc2ccccc12` [Example 10], the pEC50 is 7.29.

In the case of `C[C@H](NC(=O)C1CNCCOC1)c1cccc2ccccc12` (some centres unmarked) [Example 3], the pEC50 was 7.74.

Regarding `CC(C)(NC(=O)C1CNCCOC1)c1n[nH]c2c(F)cccc12` (racemic) [Example 88], the pEC50 was 7.95.

For the compound `Cn1nc(C(C)(C)NC(=O)C2CNCCOC2)c2cccc(Cl)c21` (racemic) [Example 80], the pEC50 is 8.32.

On to `CC(C)(NC(=O)C1CNCCCO1)c1noc2c(F)cccc12` (single isomer, unassigned) [Example 66], for which the pEC50 was 6.20.

As to `CC(C)(COc1cnccc1C(F)(F)F)NC(=O)C1CNCCOC1` (centres unmarked) [Example 4], the pEC50 is 6.57.

Regarding `Cc1cccn2c(C(C)(C)NC(=O)C3CNCCOC3)nc(C3CC3)c12` (single isomer, unassigned) [Example 139], the pEC50 is 7.65.

Regarding `CC(C)(NC(=O)C1CNCCCO1)c1noc2c(F)cccc12` (single isomer, unassigned) [Example 67], the pEC50 was 4.64.

Take `Cc1cc2ccccc2c(C(C)(C)NC(=O)C2CNCCCO2)n1` (single isomer, unassigned) [Example 49]: the pEC50 was 6.01.

Take `Cn1nc(C(C)(C)NC(=O)C2CNCCOC2)c2cccc(Cl)c21` (single isomer, unassigned) [Example 81]: the pEC50 is 6.82.

`Cc1cccn2c(C(C)(C)NC(=O)[C@@H]3CNCCO3)nnc12` [Example 105]: the pEC50 was 6.22.

As for `Cc1cccc2c(C(C)(C)NC(=O)[C@@H]3CNCCO3)cnn12` [Example 32], the pEC50 is 7.96.

As to `Cc1cccn2c(C3(NC(=O)[C@@H]4CNCCO4)CCOC3)ncc12` (single isomer, unassigned) [Example 114], the pEC50 was 6.00.

Consider `COc1cccn2c(C(C)(C)NC(=O)C3CNCCOC3)ncc12` (single isomer, unassigned) [Example 125], for which the pEC50 was 7.79.

On to `Cc1cc2ccccc2c(C(C)(C)NC(=O)C2CCNCCO2)n1` (racemic) [Example 50], for which the pEC50 was 6.98.

For `Cc1cc2ccccc2c(C(C)(C)NC(=O)C2CNCCCO2)n1` (racemic) [Example 47], the pEC50 was 7.59.

On to `Cc1cccn2c(C(C)(C)NC(=O)[C@@H]3CNCCO3)nc(C3CC3)c12` [Example 104], for which the pEC50 was 7.13.

As to `Cc1cc2ccccc2c(C(C)(C)NC(=O)C2CCNCCO2)n1` (single isomer, unassigned) [Example 51], the pEC50 was 7.37.

Consider `Cc1nc(C(C)(C)NC(=O)C2CNCCOC2)n2cccc(F)c12` (single isomer, unassigned) [Example 121], for which the pEC50 was 7.95.

Take `Cc1cccn2c(C(C)(C)NC(=O)C3CNCCOC3)nc(C)c12` (single isomer, unassigned) [Example 130]: the pEC50 is 6.33.

Take `Cc1cccc2c(C(C)(C)NC(=O)C3CNCCOC3)n[nH]c12` (single isomer, unassigned) [Example 59]: the pEC50 was 5.97.

With `CC(C)(NC(=O)C1CCNCCO1)c1noc2c(F)cccc12` (single isomer, unassigned) [Example 69], the pEC50 is 6.36.

In the case of `CC(C)(NC(=O)C1CCNCCO1)c1noc2c(F)cccc12` (racemic) [Example 68], the pEC50 is 6.20.

Regarding `CC(C)(NC(=O)C1CNCCOC1)c1cccc2ccccc12` (centres unmarked) [Example 1], the pEC50 was 8.33.

As to `CC(C)(NC(=O)[C@@H]1CNCCO1)c1ccnc2ccccc12` [Example 11], the pEC50 is 7.58.

As to `Cc1cccn2c(C(C)(C)NC(=O)C3CNCCCO3)nc(C)c12` (single isomer, unassigned) [Example 149], the negative-log EC50 (pEC50) was 6.00.

`Cc1cccc2c(C(C)(C)NC(=O)C3CNCCOC3)nn(C)c12` (racemic) [Example 84]: the pEC50 was 8.35.

`Cc1cccn2c(C(C)(C)NC(=O)C3CNCCCO3)nc(C)c12` (single isomer, unassigned) [Example 148]: the pEC50 was 7.03.

For `Cc1ncc(C(C)(C)NC(=O)C2CNCCOC2)c2ccccc12` (racemic) [Example 40], the pEC50 was 9.10.

On to `Cc1cccn2c(C(C)(C)NC(=O)C3CNCCOC3)nc(C3CC3)c12` (racemic) [Example 138], for which the pEC50 was 7.22.

Regarding `Cc1ncc(C(C)(C)NC(=O)C2CNCCOC2)c2ccccc12` (single isomer, unassigned) [Example 42], the pEC50 was 6.38.

As for `CC(C)(NC(=O)[C@@H]1CNCCO1)c1noc2c(Cl)cccc12` [Example 71], the pEC50 was 7.45.

In the case of `Cc1cccn2c(C(C)(C)NC(=O)C3CCNCCO3)ncc12` (racemic) [Example 141], the pEC50 is 7.04.

As for `Cn1nc(C(C)(C)NC(=O)[C@@H]2CNCCO2)c2c(F)cccc21` [Example 29], the pEC50 was 7.67.

Take `Cc1cccn2c(C3(NC(=O)[C@@H]4CNCCO4)CC3)ncc12` [Example 97]: the negative-log EC50 (pEC50) is 7.39.

As to `Cc1cccn2c(C(C)(C)NC(=O)C3CNCCOC3)ccc12` (single isomer, unassigned) [Example 137], the pEC50 is 5.84.

Regarding `Cc1cccc2c(C(C)(C)NC(=O)C3CNCCOC3)noc12` (racemic) [Example 54], the pEC50 is 8.09.

On to `CC(C)(NC(=O)C1CNCCOC1)c1ncc2c(Cl)cccn12` (single isomer, unassigned) [Example 119], for which the pEC50 is 7.13.

As to `Cc1cccn2c(C(C)(C)NC(=O)C3CCNCCO3)ncc12` (single isomer, unassigned) [Example 143], the pEC50 is 7.11.

For the compound `Cn1nc(C(C)(C)NC(=O)C2CNCCCO2)c2ccccc21` (single isomer, unassigned) [Example 25], the pEC50 is 6.00.

Consider `Cc1cccn2c(C(C)(NC(=O)[C@@H]3CNCCO3)C3CC3)ncc12` (single isomer, unassigned) [Example 110], for which the pEC50 was 6.00.

For the compound `Cc1cccn2c(C(C)(C)NC(=O)C3CNCCCO3)ncc12` (racemic) [Example 144], the pEC50 is 7.14.

For `Cc1cccn2c(C(C)(C)NC(=O)C3CNCCOC3)nc(C3CC3)c12` (single isomer, unassigned) [Example 140], the pEC50 was 6.00.

For the compound `Cn1nc(C(C)(C)NC(=O)C2CNCCOC2)c2ccccc21` (single isomer, unassigned) [Example 22], the pEC50 was 6.72.

Regarding `CC(C)(NC(=O)[C@H]1CNCCO1)c1cccc2ncccc12` [Example 8], the pEC50 was 6.59.

By pEC50 is commonly meant the EC50 on a negative log10 scale, so that one unit is a factor of ten.

Source of the values: patent publication US10071974B2, “Morpholine and 1,4-oxazepane amides as somatostatin receptor subtype 4 (SSTR4) agonists” (Boehringer Ingelheim International GmbH, priority 2014, dated 2018).
